Data as given in patent US20260265195A1, “SARM1 MODULATORS, PREPARATIONS, AND USES THEREOF” (SIRONAX LTD, priority 2022, published 2026).

Target: T1, SARM1 (50-724) (Homo sapiens, UniProt Q6SZW1)
T1 construct: Purified SARM1 (50-724) with a final concentration of 2 nM
T1 sequence (Q6SZW1 50-724): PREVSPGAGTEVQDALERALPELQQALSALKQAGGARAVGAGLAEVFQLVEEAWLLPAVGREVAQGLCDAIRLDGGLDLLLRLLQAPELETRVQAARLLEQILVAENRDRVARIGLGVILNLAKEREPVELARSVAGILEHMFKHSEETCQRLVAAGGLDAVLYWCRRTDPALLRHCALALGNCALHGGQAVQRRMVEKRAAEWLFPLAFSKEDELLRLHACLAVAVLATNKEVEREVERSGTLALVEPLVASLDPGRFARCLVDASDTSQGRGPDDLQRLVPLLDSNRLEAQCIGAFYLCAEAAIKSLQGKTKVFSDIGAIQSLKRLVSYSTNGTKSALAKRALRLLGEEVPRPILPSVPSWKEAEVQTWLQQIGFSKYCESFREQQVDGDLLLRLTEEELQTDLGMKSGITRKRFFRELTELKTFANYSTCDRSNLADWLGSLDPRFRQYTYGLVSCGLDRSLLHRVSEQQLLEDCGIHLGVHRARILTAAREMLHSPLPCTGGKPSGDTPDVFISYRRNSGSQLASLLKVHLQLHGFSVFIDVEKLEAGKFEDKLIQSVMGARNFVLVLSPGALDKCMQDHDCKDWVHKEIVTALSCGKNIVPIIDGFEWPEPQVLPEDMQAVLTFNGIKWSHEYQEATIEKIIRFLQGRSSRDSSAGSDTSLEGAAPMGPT
Experiment: SARM1 (50-724) enzymatic assay (NMN-activated NAD+ hydrolysis, LC-MS/MS readout)
Type: biochemical
Details: purified SARM1 (50-724) 2 nM, 200 μM NMN activator, 100 μM NAD+ substrate, 1 h at room temperature, read-out: IC50 (SARM1 inhibitory activity)
Protocol: Example II. SARM1 (50-724) Enzymatic Assay
An enzymatic assay was performed in a 384-well plate using Dulbecco's phosphate-buffered saline (PBS) as the reaction buffer. Purified SARM1 (50-724) with a final concentration of 2 nM was pre-incubated with a test compound at 1% DMSO final assay concentration for 15 min at room temperature. The reaction was initiated by adding a mixture of 200 μM nicotinamide mononucleotide (NMN) as activator and 100 μM NAD^+ as substrate. After 1 h of incubation at room temperature, the reaction was terminated with 10 times volume of 70% acetonitrile, then centrifuged at 3800 rpm for 10 min. The samples were analyzed using LC-MS/MS after diluted to a proper concentration by 10 mM ammonium acetate (pH 9.75).
ND means “not determined.”

Row | Structure (SMILES) | IC50 [nM]
1 | CC(C)c1ccc2[nH]c(C(=O)N(C)C3CCCC3)c(CO)c2c1 [Compound 27, N-cyclopenty1-3-(hydroxymethyl)-5-isopropyl-N-methyl-1H-indole-2-carboxamide] | 101 to 500
2 | CN(C(=O)c1[nH]c2ccc(C(F)(F)F)cc2c1CO)C1CCCC1 [Compound 28, N-cyclopentyl-3-(hydroxymethyl)-N-methyl-5-(trifluoromethyl)-1H-indole-2-carboxamide] | 101 to 500
3 | COc1ccc2c(CO)c(C(=O)N(C)C3CCCC3)[nH]c2c1 [Compound 29, N-cyclopentyl-3-(hydroxymethyl)-6-methoxy-N-methyl-1H-indole-2-carboxamide] | ≥ 1000
4 | COc1cc2[nH]c(C(=O)N(C)C3CCCC3)c(CO)c2cc1OC [Compound 30, N-cyclopentyl-3-(hydroxymethyl)-5,6-dimethoxy-N-methyl-1H-indole-2-carboxamide] | ≥ 1000
5 | CN(C(=O)c1[nH]c2cc(Cl)cc(Cl)c2c1CO)C1CCCC1 [Compound 31, 4,6-dichloro-N-cyclopentyl-3-(hydroxymethyl)-N-methyl-1H-indole-2-carboxamide] | ≥ 1000
6 | CN(C(=O)c1[nH]c2ccc(F)cc2c1CO)C1CCCC1 [Compound 32, N-cyclopentyl-5-fluoro-3-(hydroxymethyl)-N-methyl-1H-indole-2-carboxamide] | ≥ 1000
7 | CN(C(=O)c1[nH]ncc1CO)C1CCCC1 [Compound 33, N-cyclopentyl-4-(hydroxymethyl)-N-methyl-1H-pyrazole-5-carboxamide] | ≥ 1000
8 | COc1cc(OC)c2c(CO)c(C(=O)N(C)C3CCCC3)[nH]c2c1 [Compound 34, N-cyclopentyl-3-(hydroxymethyl)-4,6-dimethoxy-N-methyl-1H-indole-2-carboxamide] | ≥ 1000
9 | Cc1ccc2[nH]c(C(=O)N(C)C3CCCC(C)C3C)c(CO)c2c1 (stereo not shown) [Compound 35, N-(2,3-dimethylcyclohexyl)-3-(hydroxymethyl)-N,5-dimethyl-1H-indole-2-carboxamide] | ≥ 1000
10 | Cc1ccc2[nH]c(C(=O)N(C)C3CCCC3)c(CCO)c2c1 [Compound 36, N-cyclopentyl-3-(2-hydroxyethyl)-N,5-dimethyl-1H-indole-2-carboxamide] | 101 to 500
11 | COCCc1c(C(=O)N(C)C2CCCC2)[nH]c2ccc(C)cc12 [Compound 37, N-cyclopenty1-3-(2-methoxyethyl)-N,5-dimethyl-1H-indole-2-carboxamide] | 101 to 500
12 | Cc1cnc2[nH]c(C(=O)N(C)C3CCCC3)c(CO)c2c1 [Compound 38, N-cyclopentyl-3-(hydroxymethyl)-N,5-dimethyl-1H-pyrrolo[2,3-b]pyridine-2-carboxamide] | ≥ 1000
13 | Cc1cccc2c(CO)c(C(=O)N(C)C3CCCC3)[nH]c12 [Compound 39, N-cyclopentyl-3-(hydroxymethyl)-N,7-dimethyl-1H-indole-2-carboxamide] | ≥ 1000
14 | CN(C(=O)c1[nH]c2cc(Br)ccc2c1CO)C1CCCC1 [Compound 40, 6-bromo-N-cyclopentyl-3-(hydroxymethyl)-N-methyl-1H-indole-2-carboxamidc] | ≥ 1000
15 | CN(C(=O)c1[nH]c2cc(Cl)ccc2c1CO)C1CCCC1 [Compound 41, 6-chloro-N-cyclopentyl-3-(hydroxymethyl)-N-methyl-1H-indole-2-carboxamide] | ≥ 1000
16 | Cc1ccc2[nH]c(C(=O)N(C)C3C[C@@H](C)O[C@@H](C)C3)c(CO)c2c1 (stereo partly drawn) [Compound 42, N-((2R,6S)-2,6-dimethyltetrahydro-2H-pyran-4-yl)-3-(hydroxymethyl)-N,5-dimethyl-1H-indole-2-carboxamide] | ≥ 1000
17 | Cc1cccc(N(C)C(=O)c2[nH]c3ccc(C)cc3c2CO)c1 [Compound 43, 3-(hydroxymethyl)-N,5-dimethyl-N-(m-tolyl)-1H-indole-2-carboxamidc] | ≥ 1000
18 | Cc1ccc(N(C)C(=O)c2[nH]c3ccc(C)cc3c2CO)cc1 [Compound 44, 3-(hydroxymethyl)-N,5-dimethyl-N-(p-tolyl)-1H-indole-2-carboxamide] | ≥ 1000
19 | CN(C(=O)c1[nH]ccc1CO)C1CCCC1 [Compound 45, N-cyclopentyl-3-(hydroxymethyl)-N-mcthyl-1H-pyrrole-2-carboxamide] | ≥ 1000
20 | Cc1ccc2[nH]c(C(=O)N(C)C3CCCC3)nc2c1 [Compound 46, N-cyclopentyl-N,5-dimethyl-1H-benzo[d]imidazole-2-carboxamide] | 101 to 500

Row | Structure (SMILES) | IC50 [nM]
21 | Cc1ccc2[nH]c(C(=O)N(C)C3CCCCC3)nc2c1 [Compound 47, N-cyclohexyl-N,5-dimethyl-1H-benzo[d]imidazole-2-carboxamide] | 101 to 500
22 | CN(C(=O)c1nc2cc(C(F)(F)F)ccc2[nH]1)C1CCCC1 [Compound 48, N-cyclopentyl-N-methyl-5-(trifluoromethyl)-1H-benzo[d]imidazole-2-carboxamide] | ≤ 100
23 | Cc1ccc2[nH]c(C(=O)N(CCO)C3CCCC3)nc2c1 [Compound 49, N-cyclopentyl-N-(2-hydroxyethyl)-5-methyl-1H-benzo[d]imidazole-2-carboxamide] | 101 to 500
24 | Cc1ccc2[nH]c(C(=O)N(CCO)c3cccc(Cl)c3Cl)nc2c1 [Compound 50, N-(2,3-dichlorophenyl)-N-(2-hydroxyethyl)-5-methyl-1H-benzo[d]imidazole-2-carboxamide] | ≥ 1000
25 | CN(C(=O)c1nc2ccccc2[nH]1)C1CCCC1 [Compound 51, N-cyclopentyl-N-methyl-1H-benzo[d]imidazole-2-carboxamide] | ≥ 1000
26 | Cc1ccc2[nH]c(C(=O)N(C)C3CCCC3)nc2n1 [Compound 52, N-cyclopentyl-N,5-dimethyl-1H-imidazo[4,5-b]pyridine-2-carboxamide] | ≥ 1000
27 | Cc1ccc2[nH]c(C(=O)N(C)C3CC4CC4C3)nc2c1 (stereo not shown) [Compound 53, N-(bicyclo[3.1.0]hexan-1H-benzo[d]imidazole-2-carboxamide] | ≥ 1000
28 | CN(C(=O)c1cc2ccccc2[nH]1)C1CCCC1 [Compound 54, N-cyclopentyl-N-methyl-1H-indole-2-carboxamide] | ≥ 1000
29 | CN(C(=O)C1Cc2ccccc2N1)C1CCCC1 (stereo not shown) [Compound 55, N-cyclopentyl-N-methylindoline-2-carboxamide] | ≥ 1000
30 | CN(C(=O)c1nc2ccccc2o1)C1CCCC1 [Compound 56, N-cyclopentyl-N-methylbenzo[d]oxazole-2-carboxamide] | ≥ 1000
31 | CC(C)c1c[nH]c(C(=O)N(C)C2CCCC2)n1 [Compound 57, N-cyclopentyl-4-isopropyl-N-methyl-1H-imidazole-2-carboxamide] | ≥ 1000
32 | CN(C(=O)c1nc2c([nH]1)CCCC2)C1CCCC1 [Compound 58, N-cyclopentyl-N-methyl-4,5,6,7-tetrahydro-1H-benzo[d]imidazole-2-carboxamide] | ≥ 1000
33 | Cc1nc(C(=O)N(C)C2CCCC2)[nH]c1C [Compound 59, N-cyclopentyl-N,4,5-trimethyl-1H-imidazole-2-carboxamide] | ≥ 1000
34 | CN(C(=O)c1nc2c([nH]1)C(=O)CCC2)C1CCCC1 [Compound 61, N-cyclopentyl-N-methyl-7-oxo-4,5,6,7-tetrahydro-1H-benzo[d]imidazole-2-carboxamide] | ≥ 1000
35 | COCCN(C(=O)c1nc2cc(C)ccc2[nH]1)C1CCCC1 [Compound 62, N-cyclopentyl-N-(2-methoxyethyl)-5-methyl-1H-benzo[d]imidazole-2-carboxamide] | 101 to 500
36 | CNCCN(C(=O)c1nc2cc(C)ccc2[nH]1)C1CCCC1 [Compound 63, N-cyclopentyl-5-methyl-N-(2-(methylamino)ethyl)-1H-benzo[d]imidazol-2-carboxamide] | ≥ 1000
37 | Cc1ccc2[nH]c(C(=O)N(CCN(C)C)C3CCCC3)nc2c1 [Compound 64, N-cyclopentyl-N-(2-(dimethylamino)ethyl)-5-methyl-1H-benzo[d]imidazole-2-carboxamide] | ≥ 1000
38 | Cc1ccc2[nH]c(C(=O)N(CC3COC3)C3CCCC3)nc2c1 [Compound 65, N-cyclopentyl-5-methyl-N-(oxetan-3-ylmethyl)-1H-benzo[d]imidazole-2-carboxamide] | ≥ 1000
39 | Cc1ccc2[nH]c(C(=O)N(C)C3CCCC3)c(CN)c2c1 [Compound 68, 3-(aminomethyl)-N-cyclopentyl-N,5-dimethyl-1H-indole-2-carboxamide] | ≥ 1000
40 | Cc1ccc2[nH]c(C(=O)N(C)c3cccc(Cl)c3Cl)c(C#N)c2c1 [Compound 69, 3-cyano-N-(2,3-dichlorophenyl)-N,5-dimethyl-1H-indole-2-carboxamide] | ≤ 100
